Assay results published in patent publication US20020065236A1, “CpG reduced plasmids and viral vectors” (priority 1998, published 2002).

Legend:
BALB/c mice [1] = assay: Lung histopathology after intranasal instillation; conditions: 2 days post-instillation, blinded
Excerpt: The histopathological changes within BALB/c mouse lungs following administration of either cationic lipid alone, pDNA alone, or cationic lipid:pDNA complexes were also examined. […] Mice were sacrificed 2 days post-instillation and the lungs were processed for histological examination in a blinded manner.
Lungs were fixed by inflation at 30 cm of H2O pressure with 2% paraformaldehyde and 0.2% glutaraldehyde. Representative samples were taken from each lung lobe, embedded in glycol methacrylate, sectioned and stained with hematoxylin and eosin. Histopathology on the lung was evaluated in a blinded fashion and graded subjectively using a scale of 0 to 4, with a score of 0 indicating no abnormal findings and a score of 4 reflecting severe changes with intense infiltrates See Scheule et al., Hum.

BALB/c mice [2] = assay: Cytokine levels in BALF (ELISA) after intranasal instillation; conditions: for cytokine levels in BALF at higher concentrations of the compound: instilled with GL-67:pCFA-CAT; for inhibition of cytokine production in the lung: without affecting gene expression
Method: Cytokine levels in the mouse BALF were quantitated using enzyme-linked immunosorbent assay (ELISA) kits as specified by the manufacturers. IFN-γ, TNF-α, IL1-α, IL-1β, IL-10 and IL-6 ELISA kits were from Genzyme Corporation, mKC, MIP-2 and GM-CSF ELISA kits were from R&D Systems, and Leukotriene B4 ELISA kit was from Perseptive Diagnostics.
BALB/c mice were instilled intranasally with 100 μl of complex as described. […] The animals were euthanized and their lungs were lavaged 24 h post-instillation using phosphate-buffered saline (PBS). The recovered BALF were centrifuged at 1,500 rpm for 4 min, and the resulting supernatants were removed and frozen at −80° C. for subsequent cytokine analysis. The cell pellets were resuspended in PBS for microscopic determination of cell number and cell types.
Separate groups of mice were instilled with either (m)pDNA or unmethylated pDNA alone, or vehicle, and their bronchoalveolar lavage fluids collected for analysis at 24 h post-treatment.
The animals were euthanized and their lungs were lavaged 24 h post-instillation using phosphate-buffered saline (PBS). The recovered BALF were centrifuged at 1,500 rpm for 4 min., and the resulting supernatants were removed and frozen at −80° C. for subsequent cytokine analysis.
Cytokine levels were quantitated using enzyme-linked immunosorbent assay (ELISA) kits as specified by the manufacturer (Genzyme Corporation, Framingham, MA).

mouse spleen cells [3] = assay: IL-12 induction from mouse spleen cells; format: cell-based; conditions: for levels of IL-12 induction by GL-67:pCFA-CAT: addition of 10 μM of chloroquine or 1 μM of quinacrine; for levels of IL-12 induction by pCFA-CAT: co-addition of 10 μM of chloroquine or 1 μM of quinacrine, 24 hours
Method: 6-8 week old 8ALB/c mice were sacrificed by cervical dislocation. Spleens were excised and placed in sterile PBS on ice. To prepare single cell suspensions, the spleens were placed in a tissue culture dish in PBS and crushed between the frosted edges of two sterile microscope slides. Cells were pelleted by centrifugation at 1200 rpm for 8 min., and washed 3 times in PBS. After the final wash, the cells were resuspended in RPMI medium supplemented with 25 mM HEPES buffer, 10% fetal bovine serum, 2 mM L-glutamine, and 50 μM 2-mercaptoethanol (2-ME). The resuspended cells were then plated at 6×10^6 cells/ml/well in 24-well culture plates. Supernatant were collected 24 hr after addition of oligonucleotides or plasmid DNA for the measurement of cytokine (IL-12) production.

mouse spleen cells [4] = conditions: 10 μM chloroquine or 1 μM quinacrine
Method: Another strategy to reduce the stimulatory properties of the pDNA vector is to use specific inhibitors of 1 he CpG signaling pathway. […] These compounds were tested for their ability to inhibit the stimulatory properties of pDNA and cationic lipid-pDNA complexes in vitro and in the mouse lung.

SMILES	lung inflammation (histopathology, score on a scale from 0 to 4) (BALB/c mice [1])	levels of TNF-α, IFN-γ, IL-6 and murine KC (these four cytokines) in the BALF (BALB/c mice [2]; 24 h after intranasal instillation of the component alone)	contribution to the cytokine induction in the BALF (BALB/c mice [2]; with the exception of KC)	induction of IL-12 production from mouse spleen cells in vitro (mouse spleen cells [3])	levels of IL-12 induction by GL-67:pCFA-CAT (mouse spleen cells [3])	levels of IL-12 induction by pCFA-CAT (mouse spleen cells [3])	effects on expression of the CAT reporter gene (mouse spleen cells [4])	cytokine levels in BALF at higher concentrations of the compound (BALB/c mice [2])	inhibition of cytokine production in the lung (BALB/c mice [2]) [%]	effects on cell viability (mouse spleen cells [4])
CC(C)CCCC(C)C1CCC2C3CC=C4CC(OC(=O)N(CCCN)CCCCNCCCN)CCC4(C)C3CCC12C (stereo not shown) [GL-67]	scored slightly lower	low levels	did not contribute significantly	–	–	–	–	–	–	–
CCN(CC)CCCC(C)Nc1ccnc2cc(Cl)ccc12 (stereo not shown) [chloroquine]	–	–	–	greatly reduced	near background levels	near background levels	no discernible effects	did not further decrease	50	–
CCN(CC)CCCC(C)Nc1c2ccc(Cl)cc2nc2ccc(OC)cc12 (stereo not shown) [quinacrine]	–	–	–	greatly reduced	near background levels	near background levels	no discernible effects	did not further decrease	50	no discernible effects
